Reference: patent publication US20050238580A1 (priority 2002, published 2005)

Biological target: T1, intestinal lactase (Rattus norvegicus, UniProt Q02401)
T1 construct: hydrolysis of the 4-galactosyl-xylose administered is detected by the action of intestinal lactase; from tissue; host or cells: small-intestinal mucous membrane of living unweaned rats (in vivo); activity also measured post mortem in mucosa homogenate
T1 sequence (Q02401 868-1928): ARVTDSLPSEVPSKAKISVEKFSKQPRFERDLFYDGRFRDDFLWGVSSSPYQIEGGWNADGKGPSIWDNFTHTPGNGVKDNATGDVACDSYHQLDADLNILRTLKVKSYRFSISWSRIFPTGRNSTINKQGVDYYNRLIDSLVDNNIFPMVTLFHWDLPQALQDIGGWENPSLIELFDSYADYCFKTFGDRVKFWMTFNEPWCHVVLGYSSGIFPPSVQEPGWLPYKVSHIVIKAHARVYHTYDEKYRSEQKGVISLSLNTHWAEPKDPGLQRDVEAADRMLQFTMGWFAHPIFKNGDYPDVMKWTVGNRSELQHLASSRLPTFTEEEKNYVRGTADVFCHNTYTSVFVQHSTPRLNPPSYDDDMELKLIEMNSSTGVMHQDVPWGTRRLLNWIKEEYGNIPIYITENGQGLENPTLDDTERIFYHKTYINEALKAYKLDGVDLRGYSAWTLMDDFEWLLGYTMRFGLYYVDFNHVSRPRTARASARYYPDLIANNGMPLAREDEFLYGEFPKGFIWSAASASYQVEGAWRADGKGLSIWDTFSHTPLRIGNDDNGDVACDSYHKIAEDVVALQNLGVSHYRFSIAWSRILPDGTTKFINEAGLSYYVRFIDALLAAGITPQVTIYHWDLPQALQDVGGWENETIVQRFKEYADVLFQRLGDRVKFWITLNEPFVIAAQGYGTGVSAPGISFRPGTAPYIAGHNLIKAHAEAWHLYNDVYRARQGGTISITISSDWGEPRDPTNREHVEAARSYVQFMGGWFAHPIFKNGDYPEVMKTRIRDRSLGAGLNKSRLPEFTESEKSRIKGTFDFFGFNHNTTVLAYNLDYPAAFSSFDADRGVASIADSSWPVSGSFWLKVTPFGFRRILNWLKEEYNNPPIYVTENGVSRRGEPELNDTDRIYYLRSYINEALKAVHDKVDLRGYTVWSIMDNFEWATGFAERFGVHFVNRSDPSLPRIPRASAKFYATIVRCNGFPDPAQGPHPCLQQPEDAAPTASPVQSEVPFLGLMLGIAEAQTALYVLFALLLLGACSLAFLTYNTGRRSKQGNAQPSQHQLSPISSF
Test: Excretion of xylose in urine after oral 4-galactosyl-xylose versus intestinal lactase activity in unweaned rats
Format: in vivo
Text: Correlation between the excretion of xylose in urine and the presence of xylose in blood after oral administration of 4-galactosyl-xylose with intestinal lactase activity. This has been shown in unweaned rats comparing during the growth of these animals, the excretion of xylose in urine after orally administering to them 4-galactosyl-xylose, with lactase activity evaluated postmortem in the intestinal mucous membrane, which is known to physiologically reduce during growth. For this purpose, a group comprised of 20 12-day old unweaned rats belonging to two litters fasted for 6 hours by being separated from the mother. […] Immediately after the urine has been collected, four of the animals were sacrificed and the lactase activity in the intestinal mucous membrane was directly evaluated. […] The lactase activity in the homogenized product was measured spectrophotometrically. […] Therein one can see: 1) That the presence of xylose in urine coming from the hydrolysis of the 4-galactosyl-xylose administered is detected by the action of intestinal lactase; 2) That the rate of excretion of xylose in urine caused by oral administration of 4-galactosyl-xylose during the growth of the animals, runs parallel to the known physiological modification of intestinal lactase activity that reduces during growth. […]

linear correlation coefficient (r) between excretion of xylose in urine and intestinal lactase activity (unweaned rats aged 12 to 35 days, 4 mg oral, urine of 6 hours, lactase evaluated postmortem in intestinal mucous membrane): 0.96
SMILES: OCC1O[C@@H](O[C@@H]2COC(O)C(O)[C@H]2O)C(O)[C@@H](O)[C@H]1O (some centres unmarked)
dose dependence of excretion of xylose in urine (unweaned rats, oral doses from 2 to 32 mg in 0.3 ml of water): increases with the increase of the amount of 4-galactosyl-xylose administered
